Read-outs that look alike come from different tables or passages of the source. One block for each compound: values may come before it.
Key:
[1] = test system: human sandwich-cultured hepatocytes (SCH); details: for Accumulation Cells / Accumulation Cells + Bile / BEI: + 2 µM GF120918, 1 µM [3H]digoxin 10 min or 5 µM fexofenadine 30 min
[2] = test system: perfused livers from Mrp2-deficient TR^− rats; assay: In situ single-pass liver perfusion; type: in vivo, rat; details: GF120918 coadministration
human OATP1B3 = details: bosentan 100 µM, competitive, transfected CHO cells; ref [45]; cited from earlier work
human OATP2B1 = details: bosentan 100 µM, competitive, transfected CHO cells; ref [45]; cited from earlier work
human OATP1B1 = details: bosentan 100 µM, competitive, transfected CHO cells; ref [45]; cited from earlier work
[3] = test system: rat isolated perfused livers; details: P-gp inhibitor erythromycin, ref [43]; cited from earlier work

Effect on fexofenadine BEI and in vitro biliary clearance ([1]; 2 µM GF120918, human SCH): not affected
Effect on BEI and in vitro biliary clearance of [3H]digoxin ([1]; 2 µM GF120918, human SCH, both livers): abolished completely
Fexofenadine Cl’biliary as % of control [2]: 27.5 % of control
SMILES: COc1cc2c(cc1OC)CN(CCc1ccc(NC(=O)c3cccc4c(=O)c5cccc(OC)c5[nH]c34)cc1)CC2 [GF120918, N-(4-[2-(1,2,3,4-tetrahydro-6,7-dimethoxy-2-isoquinolinyl)ethyl]-phenyl)-9,10-dihydro-5-methoxy-9-oxo-4-acridine carboxamide]

Accumulation Cells ([1]; Liver 1): 29.9 ± 1.6 pmol/mg
Accumulation Cells + Bile ([1]; Liver 1): 26.2 ± 0.9 pmol/mg
BEI ([1]; Liver 1): 0%
Accumulation Cells ([1]; Liver 1, listed as [^3H]digoxin): 29.9 pmol/mg
Accumulation Cells ([1]; Liver 2): 25.2 ± 1.6 pmol/mg
Accumulation Cells + Bile ([1]; Liver 2): 23.4 ± 2.3 pmol/mg
BEI ([1]; Liver 2): 0%
SMILES: C[C@H]1O[C@@H](O[C@H]2[C@@H](O)C[C@H](O[C@H]3[C@@H](O)C[C@H](O[C@H]4CC[C@@]5(C)[C@H](CC[C@@H]6[C@@H]5C[C@@H](O)[C@]5(C)[C@@H](C7=CC(=O)OC7)CC[C@]65O)C4)O[C@@H]3C)O[C@@H]2C)C[C@H](O)[C@@H]1O [[^3H]Digoxin, digoxin]

SMILES: COc1ccccc1Oc1c(NS(=O)(=O)c2ccc(C(C)(C)C)cc2)nc(-c2ncccn2)nc1OCCO [bosentan]
Inhibition of transport of model probes (human OATP1B3): ~ 40%
Inhibition of transport of model probes (human OATP2B1): ~ 40%
Inhibition of transport of model probes (human OATP1B1): ~ 40%

SMILES: CC[C@H]1OC(=O)[C@H](C)[C@@H](O[C@H]2C[C@@](C)(OC)[C@@H](O)[C@H](C)O2)[C@H](C)[C@@H](O[C@@H]2O[C@H](C)C[C@H](N(C)C)[C@H]2O)[C@](C)(O)C[C@@H](C)C(=O)[C@H](C)[C@@H](O)[C@]1(C)O [erythromycin]
Effect on cumulative recovery of fexofenadine in bile [3]: decreased

Reference: paper PMC3083979 (Pharmaceutical research, 2009)
